Measurements as given in ChEMBL document CHEMBL1201862, “PubChem BioAssay data set” (2004).
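Cultured in 96-well plates, cells were exposed to test compound for 48 hours across five concentrations. The concentration for 50% growth inhibition is given as GI50.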 The source made the active and inactive calls. Cut-off read from the data, not from the text of the source: active = GI50 up to about 1.1 µM and inactive = higher.

Columns and labels:
Assay in all cases: DTP human tumour cell line panel, 48 h
COLO 205 = system: COLO 205
HCC 2998 = system: HCC 2998
HOP-92 = system: HOP-92
HT-29 = system: HT-29
LOX IMVI = system: LOX IMVI
M14 = system: M14
MDA-MB-231 = system: MDA-MB-231
Malme-3M = system: Malme-3M
NCI-H23 = system: NCI-H23
NCI-H522 = system: NCI-H522
NCI/ADR-RES = system: NCI/ADR-RES
OVCAR-8 = system: OVCAR-8
RPMI-8226 = system: RPMI-8226
SF-268 = system: SF-268
SF-539 = system: SF-539
SK-MEL-28 = system: SK-MEL-28
SNB-19 = system: SNB-19
UACC-257 = system: UACC-257
UO-31 = system: UO-31
SK-MEL-2 = system: SK-MEL-2

CCOC(=O)c1c(N2CCCC2)[nH]c(=O)c(C(c2ccc(N(C)C)cc2)c2c(O)c(C(=O)OCC)c(N3CCCC3)[nH]c2=O)c1O was tested, and the GI50 (COLO 205) was > 100 µM (inactive), the GI50 (HCC 2998) was > 100 µM (inactive) and the GI50 (HOP-92) was > 100 µM (inactive). The GI50 (HT-29) was > 100 µM (inactive), the GI50 (LOX IMVI) was > 100 µM (inactive) and the GI50 (M14) was > 100 µM (inactive). The GI50 (MDA-MB-231) was 82.2 µM (inactive), the GI50 (Malme-3M) was > 100 µM (inactive) and the GI50 (NCI-H23) was 95.5 µM (inactive). For the same compound, the GI50 (NCI-H522) was > 100 µM (inactive), the GI50 (NCI/ADR-RES) was > 100 µM (inactive) and the GI50 (OVCAR-8) was > 100 µM (inactive). The GI50 (RPMI-8226) was > 100 µM (inactive), the GI50 (SF-268) was > 100 µM (inactive) and the GI50 (SF-539) was > 100 µM (inactive). The GI50 (SK-MEL-28) was > 100 µM (inactive), the GI50 (SNB-19) was > 100 µM (inactive) and the GI50 (UACC-257) was > 100 µM (inactive). For the same compound, the GI50 (UO-31) was > 100 µM (inactive).
COC(=O)C(/C(=N/N)C(=O)Nc1ccc(C)c(C)c1)c1nc2ccc(Cl)cc2nc1O (centres undefined) was tested, and the GI50 (HCC 2998) was > 100 µM (inactive), the GI50 (HOP-92) was > 100 µM (inactive) and the GI50 (HT-29) was > 100 µM (inactive). For the same compound, the GI50 (LOX IMVI) was > 100 µM (inactive), the GI50 (M14) was > 100 µM (inactive) and the GI50 (MDA-MB-231) was > 100 µM (inactive). The GI50 (Malme-3M) was > 100 µM (inactive), the GI50 (NCI-H23) was > 100 µM (inactive) and the GI50 (NCI-H522) was > 100 µM (inactive). For the same compound, the GI50 (NCI/ADR-RES) was > 100 µM (inactive), the GI50 (OVCAR-8) was > 100 µM (inactive) and the GI50 (RPMI-8226) was > 100 µM (inactive). For the same compound, the GI50 (SF-268) was > 100 µM (inactive), the GI50 (SF-539) was > 100 µM (inactive) and the GI50 (SK-MEL-28) was > 100 µM (inactive). For the same compound, the GI50 (SK-MEL-2) was > 100 µM (inactive), the GI50 (UACC-257) was > 100 µM (inactive) and the GI50 (UO-31) was 28.4 µM (inactive).
CC(C)(Cl)C(Br)CCC(C)(Cl)C(Br)CBr (centres undefined) was tested, and the GI50 (COLO 205) was 18.5 µM (inactive), the GI50 (HCC 2998) was 38.1 µM (inactive) and the GI50 (HOP-92) was 15.8 µM (inactive). For the same compound, the GI50 (HT-29) was 19.5 µM (inactive), the GI50 (M14) was 34.5 µM (inactive) and the GI50 (MDA-MB-231) was 23.3 µM (inactive). The GI50 (Malme-3M) was 22.4 µM (inactive), the GI50 (NCI-H23) was 20.7 µM (inactive) and the GI50 (NCI-H522) was 16.3 µM (inactive). For the same compound, the GI50 (NCI/ADR-RES) was 31.7 µM (inactive), the GI50 (OVCAR-8) was > 100 µM (inactive) and the GI50 (RPMI-8226) was 18.1 µM (inactive). For the same compound, the GI50 (SF-268) was 37.2 µM (inactive), the GI50 (SF-539) was 24.5 µM (inactive) and the GI50 (SK-MEL-28) was 29.1 µM (inactive). For the same compound, the GI50 (SK-MEL-2) was 18.1 µM (inactive), the GI50 (SNB-19) was 39.4 µM (inactive) and the GI50 (UACC-257) was 19.6 µM (inactive). The GI50 (UO-31) was 31.9 µM (inactive).
With CCOC(=O)CCCN the GI50 (COLO 205) was > 100 µM (inactive), the GI50 (HCC 2998) was > 100 µM (inactive) and the GI50 (HOP-92) was > 100 µM (inactive). For the same compound, the GI50 (HT-29) was > 100 µM (inactive), the GI50 (LOX IMVI) was > 100 µM (inactive) and the GI50 (M14) was > 100 µM (inactive). For the same compound, the GI50 (MDA-MB-231) was > 100 µM (inactive), the GI50 (Malme-3M) was > 100 µM (inactive) and the GI50 (NCI-H23) was > 100 µM (inactive). The GI50 (NCI-H522) was > 100 µM (inactive), the GI50 (NCI/ADR-RES) was > 100 µM (inactive) and the GI50 (OVCAR-8) was > 100 µM (inactive). For the same compound, the GI50 (RPMI-8226) was > 100 µM (inactive), the GI50 (SF-268) was > 100 µM (inactive) and the GI50 (SK-MEL-28) was > 100 µM (inactive). The GI50 (SK-MEL-2) was > 100 µM (inactive), the GI50 (SNB-19) was > 100 µM (inactive) and the GI50 (UACC-257) was > 100 µM (inactive). The GI50 (UO-31) was > 100 µM (inactive).
NC(=O)c1cn(C2OC(CO)C(O)C2O)c2nc[n+]([O-])c(N)c12 (centres undefined) was tested, and the GI50 (COLO 205) was 0.201 µM (active), the GI50 (HOP-92) was 0.67 µM (active) and the GI50 (HT-29) was 0.143 µM (active). The GI50 (LOX IMVI) was 0.104 µM (active), the GI50 (M14) was 0.111 µM (active) and the GI50 (MDA-MB-231) was 0.342 µM (active). For the same compound, the GI50 (Malme-3M) was 0.0398 µM (active), the GI50 (NCI-H23) was 0.121 µM (active) and the GI50 (NCI-H522) was 1.36 µM (inactive). The GI50 (NCI/ADR-RES) was 0.107 µM (active), the GI50 (OVCAR-8) was 0.094 µM (active) and the GI50 (RPMI-8226) was 0.266 µM (active). The GI50 (SF-268) was 0.23 µM (active), the GI50 (SF-539) was 0.321 µM (active) and the GI50 (SK-MEL-28) was 0.341 µM (active). For the same compound, the GI50 (SK-MEL-2) was 0.157 µM (active), the GI50 (SNB-19) was 0.542 µM (active) and the GI50 (UACC-257) was 0.244 µM (active). For the same compound, the GI50 (UO-31) was 0.382 µM (active).
O=[N+]([O-])c1ccc2c(/N=N/c3ccc4ccccc4c3O)c(O)cc(S(=O)(=O)O)c2c1 was tested, and the GI50 (COLO 205) was 27.7 µM (inactive), the GI50 (HCC 2998) was 39.5 µM (inactive) and the GI50 (HOP-92) was 21.6 µM (inactive). The GI50 (HT-29) was 44.5 µM (inactive), the GI50 (LOX IMVI) was 6.65 µM (inactive) and the GI50 (M14) was 6.76 µM (inactive). For the same compound, the GI50 (MDA-MB-231) was 35 µM (inactive), the GI50 (Malme-3M) was 18.3 µM (inactive) and the GI50 (NCI-H23) was 31.3 µM (inactive). The GI50 (NCI-H522) was 7.71 µM (inactive), the GI50 (NCI/ADR-RES) was 11.1 µM (inactive) and the GI50 (OVCAR-8) was 7.41 µM (inactive). For the same compound, the GI50 (RPMI-8226) was 17.8 µM (inactive), the GI50 (SF-268) was 8.89 µM (inactive) and the GI50 (SF-539) was 11.4 µM (inactive). The GI50 (SK-MEL-28) was 12 µM (inactive), the GI50 (SK-MEL-2) was 23 µM (inactive) and the GI50 (SNB-19) was 13.2 µM (inactive). The GI50 (UACC-257) was 31.3 µM (inactive) and the GI50 (UO-31) was 5.78 µM (inactive).
COc1ccc(CCc2cc(OC)c(OC)c(OC)c2)cc1 was tested, and the GI50 (COLO 205) was 0.0191 µM (active), the GI50 (HCC 2998) was 0.0568 µM (active) and the GI50 (HOP-92) was 0.805 µM (active). The GI50 (HT-29) was 0.0235 µM (active), the GI50 (LOX IMVI) was 0.0372 µM (active) and the GI50 (M14) was 0.0318 µM (active). The GI50 (MDA-MB-231) was 0.296 µM (active), the GI50 (Malme-3M) was 0.271 µM (active) and the GI50 (NCI-H23) was 0.0743 µM (active). For the same compound, the GI50 (NCI-H522) was 0.0195 µM (active), the GI50 (NCI/ADR-RES) was 0.0622 µM (active) and the GI50 (OVCAR-8) was 0.1 µM (active). The GI50 (RPMI-8226) was 0.0309 µM (active), the GI50 (SF-268) was 0.423 µM (active) and the GI50 (SF-539) was 0.0258 µM (active). For the same compound, the GI50 (SK-MEL-28) was 0.183 µM (active), the GI50 (SK-MEL-2) was 0.146 µM (active) and the GI50 (SNB-19) was 0.111 µM (active). The GI50 (UACC-257) was 0.544 µM (active) and the GI50 (UO-31) was 1.95 µM (inactive).
